# Assays:
# [1] = test system: Japanese medaka (Oryzias latipes); experiment: Fish Short‐Term Reproduction Assay; type: in vivo; conditions: for GSI Female / GSI Male / HSI Female / HSI Male / Length Female / Length Male / Weight Female / Weight Male: completion of exposure
# medaka ARβ (mArβ) [2] = target: T1, medaka ARβ (mArβ) (Oryzias latipes, UniProt D1MV73); experiment: Medaka ARβ reporter gene assay, agonist assay; type: cell-based, Japanese medaka (Oryzias latipes); conditions: MAC = 1.0 × 10^−5 M
# T1 sequence (D1MV73 1-744): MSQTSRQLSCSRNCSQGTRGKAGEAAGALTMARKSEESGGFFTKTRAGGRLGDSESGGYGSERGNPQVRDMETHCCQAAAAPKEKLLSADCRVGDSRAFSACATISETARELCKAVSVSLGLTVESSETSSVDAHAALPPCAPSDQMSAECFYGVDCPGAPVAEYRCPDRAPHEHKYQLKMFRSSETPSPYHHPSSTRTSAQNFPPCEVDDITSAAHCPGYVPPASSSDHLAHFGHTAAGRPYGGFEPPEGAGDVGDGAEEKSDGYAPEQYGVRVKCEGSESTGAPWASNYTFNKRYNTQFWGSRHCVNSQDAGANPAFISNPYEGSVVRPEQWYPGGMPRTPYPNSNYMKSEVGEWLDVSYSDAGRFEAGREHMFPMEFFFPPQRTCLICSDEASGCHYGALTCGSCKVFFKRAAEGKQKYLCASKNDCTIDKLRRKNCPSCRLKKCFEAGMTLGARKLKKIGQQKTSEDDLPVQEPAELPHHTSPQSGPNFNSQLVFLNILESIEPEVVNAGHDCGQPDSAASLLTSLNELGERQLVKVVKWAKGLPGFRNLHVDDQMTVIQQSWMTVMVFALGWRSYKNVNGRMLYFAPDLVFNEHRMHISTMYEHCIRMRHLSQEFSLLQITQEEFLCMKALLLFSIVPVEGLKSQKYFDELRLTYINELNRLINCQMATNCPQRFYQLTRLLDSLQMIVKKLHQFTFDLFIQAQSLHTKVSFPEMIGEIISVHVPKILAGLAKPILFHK
# medaka Esr1 (mEsr1) [3] = target: T2, medaka Esr1 (mEsr1) (Oryzias latipes, UniProt P50241); experiment: cell-based; set-up: species or system Japanese medaka (Oryzias latipes)
# T2 sequence (P50241 1-620): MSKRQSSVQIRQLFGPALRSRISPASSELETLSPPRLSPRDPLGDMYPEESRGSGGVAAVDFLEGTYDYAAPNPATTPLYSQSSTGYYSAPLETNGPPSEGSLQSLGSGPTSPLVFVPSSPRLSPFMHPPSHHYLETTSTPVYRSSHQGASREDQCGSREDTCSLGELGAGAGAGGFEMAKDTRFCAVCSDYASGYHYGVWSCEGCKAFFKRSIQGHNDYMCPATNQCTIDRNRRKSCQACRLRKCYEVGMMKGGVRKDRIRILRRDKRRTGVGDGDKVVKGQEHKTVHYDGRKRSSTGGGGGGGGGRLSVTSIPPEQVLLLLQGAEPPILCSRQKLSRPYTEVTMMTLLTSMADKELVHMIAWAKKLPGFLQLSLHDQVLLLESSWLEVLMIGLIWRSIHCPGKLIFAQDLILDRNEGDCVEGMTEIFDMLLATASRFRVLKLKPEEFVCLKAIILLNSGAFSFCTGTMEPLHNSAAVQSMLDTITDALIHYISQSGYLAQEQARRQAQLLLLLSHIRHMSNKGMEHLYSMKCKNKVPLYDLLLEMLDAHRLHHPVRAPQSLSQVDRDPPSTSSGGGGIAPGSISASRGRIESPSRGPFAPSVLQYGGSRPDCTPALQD
# Japanese medaka = conditions: ref Flynn et al. (2018); cited from earlier work
# medaka Esr1 (mEsr1) [4] = target: T2, medaka Esr1 (mEsr1); experiment: Medaka Esr1 reporter gene assay, antagonist assay; type: cell-based, Japanese medaka (Oryzias latipes); conditions: E2 spiked at 0.2 nM (A); MAC = 1.0 × 10^−5 M
# medaka ARβ (mArβ) [5] = target: T1, medaka ARβ (mArβ); experiment: Medaka ARβ reporter gene assay, antagonist assay; type: cell-based, Japanese medaka (Oryzias latipes); conditions: 11‐KT spiked at 10 nM (C); MAC = 1.0 × 10^−5 M
# [6] = 598 μg/L measured, 21 d, sig. ↑ vs control
# [7] = 952 μg/L measured, 21 d, sig. ↑ vs control
# [8] = measured concentration 196 μg/L
# [9] = measured concentration 598 μg/L
# [10] = measured concentration 952 μg/L
compound,measurement,setting,value
"CCOP(=S)(OCC)Oc1cc(C)nc(C(C)C)n1 [DZ, Diazinon]",Individuals with symptoms of presumed paralysis of motor function,[1]; 38 μg/L,12.5%
same,Fertility rate,"[1]; 38 μg/L measured, 21 d",96 ± 0.8%
same,"Hepatic VTG, female","[1]; 38 μg/L measured, 21 d","2,665 ± 1942 ng/mg‐liver"
same,"Hepatic VTG, male","[1]; 38 μg/L measured, 21 d",0.13 ± 0.16 ng/mg‐liver
same,Mortality,"[1]; 38 μg/L measured, 21 d",4.2%
same,"Mortality, number of dead fish","[1]; 38 μg/L measured, 21 d",1
same,Number of fertilized eggs (per female per day),"[1]; 38 μg/L measured, 21 d",18 ± 0.7
same,Number of total eggs (per female per day),"[1]; 38 μg/L measured, 21 d",19 ± 0.6
same,SSC female (joint plates with papillary processes),"[1]; 38 μg/L measured, 21 d",0 ± 0
same,SSC male (joint plates with papillary processes),"[1]; 38 μg/L measured, 21 d",82 ± 16
same,Fish with symptoms of presumed paralysis of motor function (in words),[1]; 196 μg/L level and above,all fish
same,"Hepatic VTG, female","[1]; 196 μg/L measured, 21 d","1722 ± 1,394 ng/mg‐liver"
same,"Hepatic VTG, male","[1]; 196 μg/L measured, 21 d",0.08 ± 0.14 ng/mg‐liver
same,Mortality,"[1]; 196 μg/L measured, 21 d",4.2%
same,"Mortality, number of dead fish","[1]; 196 μg/L measured, 21 d",1
same,SSC female (joint plates with papillary processes),"[1]; 196 μg/L measured, 21 d",0 ± 0
same,SSC male (joint plates with papillary processes),"[1]; 196 μg/L measured, 21 d",84 ± 19
same,Fertility rate,"[1]; 196 μg/L measured, 21 d, sig. ↓ vs control",12 ± 6.3%
same,"Hepatic VTG, female","[1]; 598 μg/L measured, 21 d",661 ± 552 ng/mg‐liver
same,"Hepatic VTG, male","[1]; 598 μg/L measured, 21 d",0.06 ± 0.04 ng/mg‐liver
same,SSC female (joint plates with papillary processes),"[1]; 598 μg/L measured, 21 d",0 ± 0
same,SSC male (joint plates with papillary processes),"[1]; 598 μg/L measured, 21 d",89 ± 17
same,Mortality,[1]; [6],42%
same,"Mortality, number of dead fish",[1]; [6],10
same,Fertility rate,"[1]; 598 μg/L measured, 21 d, sig. ↓ vs control",55 ± 6.7%
same,"Hepatic VTG, female","[1]; 952 μg/L measured, 21 d","1,621 ± 1,314 ng/mg‐liver"
same,"Hepatic VTG, male","[1]; 952 μg/L measured, 21 d",0.89 ± 1.67 ng/mg‐liver
same,SSC female (joint plates with papillary processes),"[1]; 952 μg/L measured, 21 d",0 ± 0
same,SSC male (joint plates with papillary processes),"[1]; 952 μg/L measured, 21 d",89 ± 15
same,Mortality,[1]; [7],58%
same,"Mortality, number of dead fish",[1]; [7],14
same,"Fecundity, number of total eggs (in words)",[1]; 21 d,statistically significant decrease
same,LOECmVTG,[1]; LOEC on VTG induction in males,ND (>952) μg/L
same,LOECREPRO,[1]; LOEC on reproduction (fecundity and/or fertility),196 µg/L
same,LOECTOX,[1]; lowest observed effect concentration on mortality,196 µg/L
same,GSI Female,[1]; measured concentration 38 μg/L,12.3 ± 1.3%
same,GSI Male,[1]; measured concentration 38 μg/L,0.9 ± 0.4%
same,HSI Female,[1]; measured concentration 38 μg/L,5.3 ± 1.20%
same,HSI Male,[1]; measured concentration 38 μg/L,2.8 ± 1.70%
same,Length Female,[1]; measured concentration 38 μg/L,30.7 ± 1.0 mm
same,Length Male,[1]; measured concentration 38 μg/L,30.1 ± 0.6 mm
same,Weight Female,[1]; measured concentration 38 μg/L,338 ± 36 mg
same,Weight Male,[1]; measured concentration 38 μg/L,294 ± 21 mg
same,GSI Female,[1]; [8],6.8 ± 3.5%
same,GSI Male,[1]; [8],0.6 ± 0.2%
same,HSI Female,[1]; [8],2.0 ± 0.70%
same,HSI Male,[1]; [8],1.6 ± 0.60%
same,Length Female,[1]; [8],28.5 ± 1.1 mm
same,Length Male,[1]; [8],28.5 ± 0.6 mm
same,Weight Female,[1]; [8],217 ± 19 mg
same,Weight Male,[1]; [8],200 ± 14 mg
same,GSI Female,[1]; [9],3.3 ± 0.7%
same,GSI Male,[1]; [9],0.4 ± 0.1%
same,HSI Female,[1]; [9],1.9 ± 0.30%
same,HSI Male,[1]; [9],1.2 ± 0.40%
same,Length Female,[1]; [9],28.7 ± 0.0 mm
same,Length Male,[1]; [9],29.6 ± 0.2 mm
same,Weight Female,[1]; [9],203 ± 47 mg
same,Weight Male,[1]; [9],190 ± 13 mg
same,GSI Female,[1]; [10],6.9 ± 2.4%
same,GSI Male,[1]; [10],0.5 ± 0.1%
same,HSI Female,[1]; [10],1.6 ± 0.50%
same,HSI Male,[1]; [10],1.5 ± 0.60%
same,Length Female,[1]; [10],27.5 ± 0.8 mm
same,Length Male,[1]; [10],28.3 ± 1.2 mm
same,Weight Female,[1]; [10],203 ± 26 mg
same,Weight Male,[1]; [10],183 ± 20 mg
same,Agonistic activity,medaka ARβ (mArβ) [2],NE (MAC = 1.0 × 10^−5 M)
same,Agonistic activity PC10,medaka Esr1 (mEsr1) [3],PC10 = 1.0 × 10^−5 M
same,In vitro positive: Esr,medaka Esr1 (mEsr1) [3]; mode of action in which EC50 or PC10 was obtained in RGA,Esr
same,LOEC on fecundity,Japanese medaka,2.9 µg/L
same,LOEC on growth,Japanese medaka,5.2 µg/L
same,Antagonistic activity,medaka Esr1 (mEsr1) [4],NE (MAC = 1.0 × 10^−5 M)^(A)
same,Antagonistic activity,medaka ARβ (mArβ) [5],NE (MAC = 1.0 × 10^−5 M)^(C)

# Source: publication PMC9297976 (Journal of Applied Toxicology, 2021)
